{"source": "paper PMC7340344", "about": "(Journal of medicinal chemistry, 2020)", "note": "Structures can show the parent of a compound that is named as a salt."}
{"target": "T1, HAT domain of human p300 (Homo sapiens, UniProt Q09472)", "T1 sequence (Q09472 1195-1673)": "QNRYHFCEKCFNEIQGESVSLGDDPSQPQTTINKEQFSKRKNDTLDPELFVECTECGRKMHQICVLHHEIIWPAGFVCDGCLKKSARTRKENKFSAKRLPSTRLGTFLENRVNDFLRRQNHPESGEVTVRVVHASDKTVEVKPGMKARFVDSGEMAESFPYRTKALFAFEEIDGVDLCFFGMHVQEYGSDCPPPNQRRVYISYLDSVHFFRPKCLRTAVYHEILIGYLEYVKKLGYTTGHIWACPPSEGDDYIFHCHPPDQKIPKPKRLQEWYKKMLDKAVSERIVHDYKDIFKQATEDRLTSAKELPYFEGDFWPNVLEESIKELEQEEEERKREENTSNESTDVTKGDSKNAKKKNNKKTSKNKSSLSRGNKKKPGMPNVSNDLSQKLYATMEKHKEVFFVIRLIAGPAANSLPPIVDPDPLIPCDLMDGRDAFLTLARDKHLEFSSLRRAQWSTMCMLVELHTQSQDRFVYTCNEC", "experiment": "Inhibition of p300-HAT", "type": "biochemical", "settings": "ratio of p300 HAT IC50 to that of compound 12"}
{"smiles": "CC(C)(C)c1ccc(-c2cc(CNC3CCNCC3)sc2-c2ccc(C(C)(C)C)cc2)cc1", "note": "[Compound 14, N-((4,5-bis(4-(tert-Butyl)phenyl)thiophen-2-yl)methyl)piperidin-4-amine hydrochloride]", "activity reduction as compared to 12": "~ 8 fold"}
{"smiles": "CC(C)(C)c1ccc(-c2cc(CNCCC3CCNCC3)sc2-c2ccc(C(C)(C)C)cc2)cc1", "note": "[Compound 15, N-((4,5-bis(4-(tert-Butyl)phenyl)thiophen-2-yl)methyl)-2-(piperidin-4-yl)ethanamine hydrochloride]", "activity reduction as compared to 12": "~3 fold"}
{"smiles": "CC(C)(C)c1ccc(-c2cc(CNCC3CCNCC3)sc2-c2ccc(CN)cc2)cc1", "note": "[Compound 26, 1-(5-(4-(Aminomethyl)phenyl)-4-(4-(tert-butyl)phenyl)thiophen-2-yl)-N-(piperidin-4-ylmethyl)methanamine hydrochloride]", "activity reduction as compared to 12": "~ 3 fold"}
{"target": "T1, HAT domain of human p300", "experiment": "Inhibition of p300-HAT", "type": "biochemical", "settings": "read-out: % inhibition at 10 μM, compound at 10 μM", "units": {"inhibition at 10 µM": "%"}}
{"smiles": "CC(C)(C)c1ccc(-c2sc(C(=O)NCC3CCNCC3)cc2-c2ccoc2)cc1", "note": "[Compound 8, 5-(4-(tert-Butyl)phenyl)-4-(furan-3-yl)-N-(piperidin-4-ylmethyl)thiophene-2-carboxamide hydrochloride]", "inhibition at 10 µM": "~30"}
{"smiles": "CC(C)(C)c1ccc(-c2sc(C(=O)NCC3CCNCC3)cc2-c2cccnc2)cc1", "note": "[Compound 9, 5-(4-(tert-Butyl)phenyl)-N-(piperidin-4-ylmethyl)-4-(pyridin-3-yl)thiophene-2-carboxamide hydrochloride]", "inhibition at 10 µM": "~30"}
{"target": "T1, HAT domain of human p300", "experiment": "Inhibition of p300-HAT", "type": "biochemical", "settings": "removal of the carbonyl group"}
{"smiles": "COc1ccc(-c2ccc(-c3cc(CNCC4CCNCC4)sc3-c3ccc(-c4ccc(OC)cc4)cc3)cc2)cc1", "note": "[Compound 10, 1-(4,5-bis(4’-Methoxy-[1,1’-biphenyl]-4-yl)thiophen-2-yl)-N-(piperidin-4-ylmethyl)methanamine hydrochloride]", "activity reduction as compared to 3": "~ 50%"}
{"target": "T1, HAT domain of human p300", "experiment": "Inhibition of p300-HAT", "type": "biochemical", "settings": "tested up to 10 μM"}
{"smiles": "CC(C)(C)c1ccc(-c2sc(C(=O)NCC3CCNCC3)cc2-c2ccc(CN3CCNCC3)cc2)cc1", "note": "[Compound 7, 5-(4-(tert-Butyl)phenyl)-4-(4-(piperazin-1-ylmethyl)phenyl)-N-(piperidin-4-ylmethyl)thiophene-2-carboxamide hydrochloride]", "inhibitory activity against p300 HAT (in words)": "almost inactive"}
{"smiles": "CC(C)(C)c1ccc(-c2cc(COCC3CCNCC3)sc2-c2ccc(C(C)(C)C)cc2)cc1", "note": "[Compound 13, 4-(((4,5-bis(4-(tert-Butyl)phenyl)thiophen-2-yl)methoxy)methyl)piperidine hydrochloride]", "inhibitory activity against p300 HAT (in words)": "complete loss of inhibitory activity"}
{"smiles": "CC(C)(C)c1ccc(-c2cc(CN3CCNCC3)sc2-c2ccc(C(C)(C)C)cc2)cc1", "note": "[Compound 18, 1-((4,5-bis(4-(tert-Butyl)phenyl)thiophen-2-yl)methyl)piperazine hydrochloride]", "inhibitory activity against p300 HAT (in words)": "Loss of activity"}
{"smiles": "CC(C)(C)c1ccc(-c2cc(CN3CCOCC3)sc2-c2ccc(C(C)(C)C)cc2)cc1", "note": "[Compound 19, 4-((4,5-bis(4-(tert-Butyl)phenyl)thiophen-2-yl)methyl)morpholine hydrochloride]", "inhibitory activity against p300 HAT (in words)": "Loss of activity"}
{"smiles": "CCCCc1ccc(-c2cc(CNCC3CCNCC3)sc2-c2ccc(CCCC)cc2)cc1", "note": "[Compound 23, 1-(4,5-bis(4-Butylphenyl)thiophen-2-yl)-N-(piperidin-4-ylmethyl)methanamine hydrochloride]", "inhibitory activity against p300 HAT (in words)": "Loss of activity"}
{"smiles": "CC(C)(C)c1ccc(-c2sc(CNCC3CCNCC3)cc2-c2ccc(CN)cc2)cc1", "note": "[Compound 27, 1-(4-(4-(Aminomethyl)phenyl)-5-(4-(tert-butyl)phenyl)thiophen-2-yl)-N-(piperidin-4-ylmethyl)-methanamine hydrochloride]", "inhibitory activity against p300 HAT (in words)": "major activity loss"}
{"smiles": "OCc1ccc(-c2cc(CNCC3CCNCC3)sc2-c2ccc(CO)cc2)cc1", "note": "[Compound 29, ((5-(((Piperidin-4-ylmethyl)amino)methyl)thiophene-2,3-diyl)bis(4,1-phenylene))dimethanol hydrochloride]", "inhibitory activity against p300 HAT (in words)": "weak inhibitor"}
